This note sets out measurements from patent US9018395B2, “Pyrazolopyridine and pyrazolopyrimidine derivatives as melanocortin-4 receptor modulators” (Université de Montréal, priority 2011, dated 2015).

Bounds are passed on as bounds.

As usually defined, the IC50 is the concentration that gives 50% inhibition. Low values mean greater potency, high ones weaker potency.

The target of the test is T1, wild-type human melanocortin 4 receptor (WT-hMC4R) (Homo sapiens, UniProt P32245).
T1 construct: expressed in transfected cells; cDNA from UMR cDNA resource center
T1 sequence (P32245 whole entry): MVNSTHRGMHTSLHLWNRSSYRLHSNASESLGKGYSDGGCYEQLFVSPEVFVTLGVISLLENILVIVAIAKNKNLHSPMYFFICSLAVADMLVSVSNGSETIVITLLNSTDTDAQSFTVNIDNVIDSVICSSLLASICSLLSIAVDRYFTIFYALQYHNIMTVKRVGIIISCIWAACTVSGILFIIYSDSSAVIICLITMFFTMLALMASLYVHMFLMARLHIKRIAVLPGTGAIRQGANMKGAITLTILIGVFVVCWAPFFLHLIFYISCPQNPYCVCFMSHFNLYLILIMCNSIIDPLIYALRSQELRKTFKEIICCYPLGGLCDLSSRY
The test is described as follows: Cyclic AMP assay (HTRF), antagonist competition against NDP-α-MSH. The format is cell-based. The note with it: HEK293T cells expressing double-tagged WT-hMC4R; cAMP accumulation; 1 hour compound then 4 nM NDP-α-MSH 30 min. On the procedure:
Intracellular cyclic 3′-5′ adenosine monophosphate (cAMP) accumulation was measured using a competitive immunoassay based on HTRF (Homogeneous Time-Resolved Fluorescence) technology (cAMP dynamic-2, Cis-Bio).
HEK293T stable cell line expressing double-tagged WT-hMC4R construct were collected and washed in cAMP buffer (1XD-PBS pH 7.4, 0.1% glucose). 40,000 cells/well were then dispensed in 96-well plates in cAMP buffer [1XD-PBS, 1% BSA, 0.1% Glucose, 0.75 mM 3-isobutyl-1methyl-xanthine (IBMX, Sigma)] and incubated either for antagonist competition assay: 1 hour at 37° C. with various concentrations of compound [0.01 nM-10 μM] followed by 30 min incubation at 37° C. with 4 nM of NDP-α-MSH (Sigma) or for agonist assay: 1 hour at 37° C. with various concentrations of compound [0.01 nM-10 μM]. 10,000 cells were transferred in 384-well plates, lysed and incubated with cAMP labeled with the dye d2 and anti-cAMP M-Antibody labeled with Cryptate following the manufacturer's protocol.
Reading of HTRF signal was performed on Artemis TR-FRET plate reader (Cosmo Bio).
All curve fitting was conducted using non-linear regression analyses from PRISM (version 4.0c, GraphPad Inc.) and the determination of Rmax and EC50 or IC50 parameters were obtained from sigmoidal dose-response phase (variable slope) equation.
A cDNA encoding a wild-type human MC4R with a 3 tandem copies of Hemaglutinine (HA) epitote sequence from UMR cDNA resource center was modified using known techniques in the art (e.g., PCR, cloning) to fused in frame at the C-terminal a venus-Yellow Fluorescent Protein (YFP) cDNA.
The resultant cDNA was then subcloned in eukaryotic expression vector, e.g. pcDNA 3.1(+) (Invitrogen).
The double tagged WT-hMC4R was transfected in HEK293T cells with lipofectamine (Invitrogen) following the manufacturer's instructions and permanently transfected clonal cell lines were selected by resistance to the neomycin analog G418.
HEK293T stable cell line expressing wild-type human melanocortin 4 receptor (WT-hMC4R) containing an N-terminal 3xHA epitope tag and an intracellular C-terminal venus-yellow fluorescent protein (v-YFP) were maintained at 37° C. in humidified air containing 5% CO2 in Dulbecoo's modified Eagle's medium (DMEM) supplemented with 10% fetal bovine serum (FBS), 100 U/ml penicillin/streptomycin (DMEM complete/10% FBS). Cells were generally at 70%-80% confluence on the day of assay.
(In general: TR-FRET usually uses a lanthanide donor and a delayed reading to cut background.)
The compound `CC(C)CCN(CCC(C)C)C(=S)c1ccn2nc(-c3ccccc3)c(CCCN3CCCCC3)c2c1` [Example 143] returned a 50% inhibitory concentration (IC50) of 1 to 5 µM.
The figure for `COc1ccccc1-c1nn2ccc(C(=O)N(CCC(C)C)CCC(C)C)cc2c1CCCN1CCCCC1` [Example 151] is 1 to 5 µM; for `CCN(CC)CCCc1c(-c2ccc(OC)cc2)nn2ccc(C(=O)N(CCC(C)C)CCC(C)C)nc12` [Example 105] it is 5 to 15 µM.
Then `COc1ccc(Nc2nn3ccc(C(=O)N(CCC(C)C)CCC(C)C)cc3c2/C=C/CN2CCCCC2)cc1` [Example 138, (E)-N,N-diisopentyl-2-((4-methoxphenyl)amino)-3-(3-(piperidin-1-yl)prop-1-en-1-yl)pyrazolo[1,5-a]pyridine-5-carboxamide], with under 0.5 µM; and `COc1ccc(-c2nn3ccc(C(=O)N(CCC(C)C)CCC(C)C)cc3c2CCCN2CCCCC2)cc1` [Example 2], with 1 to 5 µM.
Then `COC(=O)c1ccc(-c2nn3ccc(C(=O)N(CCC(C)C)CCC(C)C)cc3c2CCCN2CCCCC2)cc1` [Example 44], with 0.5 to 1 µM.
`CC(C)CCN(CCC(C)C)C(=O)c1ccn2nc(-c3ccccc3Br)c(/C=C/CN3CCCCC3)c2c1` [Example 34] returned a half-maximal inhibitory concentration (IC50) of 1 to 5 µM.
Then `Cc1nc(-c2ccc(-c3nn4ccc(C(=O)N(CCC(C)C)CCC(C)C)cc4c3CCCN3CCCCC3)cc2)no1` [Example 135], with under 0.5 µM.
The figure for `CC(=O)c1cccc(-c2nn3ccc(C(=O)N(CCC(C)C)CCC(C)C)cc3c2CCCN2CCCCC2)c1` [Example 33] is under 0.5 µM.
The figure for `COC(=O)c1ccc(-c2nn3ccc(C(=O)N(CCC(C)C)CCC(C)C)cc3c2/C=C/CN2CCCCC2)cc1` [Example 43, (E)-Methyl 4-(5-(diisopentylcarbamoyl)-3-(3-(piperidin-1-yl)prop-1-en-1-yl)pyrazolo[1,5-a]pyridin-2-yl)benzoate] is 0.5 to 1 µM.
`COc1ccc(-c2nn3ccc(C(=O)N(CCC(C)C)CCC(C)C)cc3c2C#CCN2CCCCC2)cc1` [Example 109] came in with an IC50 of 1 to 5 µM.
The figure for `CC(C)CCN(CCC(C)C)C(=O)c1ccn2nc(-c3cccc(C(=O)O)c3)c(/C=C/CN3CCCCC3)c2c1` [Example 73] is 1 to 5 µM.
In turn, `CC(C)CCN(CCC(C)C)C(=O)c1ccn2nc(-c3ccc(C(C)O)cc3)c(CCCN3CCCCC3)c2c1` (stereo not shown) [Example 46, 2-(4-(1-Hydroxyethyl)phenyl)-N,N-diisopentyl-3-(3-(piperidin-1-yl)propyl)pyrazolo[1,5-a]pyridine-5-carboxamide] showed an IC50 of under 0.5 µM.
Then `COc1ccc(-c2nn3ccc(C(=O)N(CCC(C)C)CCC(C)C)cc3c2CCN2CCCCC2)cc1` [Example 149, N,N-diisopentyl-2-(4-methoxyphenyl)-3-(2-(piperidin-1-yl)ethyl)pyrazolo[1,5-a]pyridine-5-carboxamide], with 5 to 15 µM; and `COc1ccc(-c2nn3ccc(C(=O)N(CCC(C)C)CCC(C)C)nc3c2/C=C/CN2CCCCC2)cc1` [Example 88, (E)-N,N-Diisopentyl-2-(4-methoxyphenyl)-3-(3-(piperidin-1-yl)prop-1-en-1-yl)pyrazolo[1,5-a]pyrimidine-5-carboxamide], with 1 to 5 µM; and “N,N-Diisopentyl-2-(4-methoxyphenyl)-3-(3-(piperidin-1-yl)propyl)pyrazolo[1,5-a]pyrimidine-5-carboxamide [Example 89]”, with 1 to 5 µM.
Regarding `CCCCN(CCCC)C(=O)c1ccn2nc(-c3ccc(C)cc3)c(CCCN3CCCCC3)c2c1` [Example 60], the IC50 fell in the range of 0.5 to 1 µM.
Then `CC(C)CCN(CCC(C)C)C(=O)c1ccn2nc(-c3cccc(Cl)c3)c(CCCN3CCCCC3)c2c1` [Example 83, 2-(3-Chlorophenyl)-N,N-diisopentyl-3-(3-(piperidin-1-yl)propyl)pyrazolo[1,5-a]pyridine-5-carboxamide], with under 0.5 µM; and `COc1ccc(-c2nn3ccc(C(=O)N(CCC4CC4)CCC4CC4)cc3c2/C=C/CN2CCCCC2)cc1` [Example 108], with 1 to 5 µM.
The figure for `CC(C)CCN(CCC(C)C)C(=O)c1ccn2nc(Br)c(/C=C/CN3CCCCC3)c2c1` [Example 132] is 1 to 5 µM; for `CC(C)CCN(CCC(C)C)C(=N)c1ccn2nc(-c3ccccc3)c(CCCN3CCCCC3)c2c1` [Example 127] it is 0.5 to 1 µM.
In turn, `CCOc1ccc(-c2nn3ccc(C(=O)N(CCC(C)C)CCC(C)C)cc3c2/C=C/CN2CCC(C(F)(F)F)CC2)cc1` [Example 81] registered an IC50 of 5 to 15 µM.
Then `CC(=O)c1ccc(-c2nn3ccc(C(=O)N(CCC(C)C)CCC(C)C)cc3c2/C=C/CN2CCOCC2)cc1` [Example 115], with 1 to 5 µM.
Then `COc1cccc(-c2nn3ccc(C(=O)N(CCC(C)C)CCC(C)C)cc3c2CCCN2CCCCC2)c1` [Example 15], with under 0.5 µM; and `CC(C)CCN(CCC(C)C)C(=O)c1ccn2nc(-c3cccc(Br)c3)c(/C=C/CN3CCCCC3)c2c1` [Example 28], with 1 to 5 µM; and `CC(C)CCN(CCC(C)C)C(=O)c1ccn2nc(-c3ccc(F)cc3)c(CCCN3CCCCC3)c2c1` [Example 49], with under 0.5 µM.
Then `CCCCCN(CCCCC)C(=O)c1ccn2nc(-c3cc(OC)c(OC)c(OC)c3)c(CCCN3CCCCC3)c2c1` [Example 68], with 0.5 to 1 µM.
`COc1ccc(-c2nn3ccc(C(=O)N(CCC(C)C)CCC(C)C)cc3c2/C=C/CN2CCCCC2)cc1` [Example 3] showed an IC50 of 0.5 to 1 µM.
Then `COc1ccc(-c2nn3ccc(C(=O)N(CCC(C)C)CCC(C)C)cc3c2/C=C/CNCc2ccccc2)cc1` [Example 150], with 5 to 15 µM.
The figure for `CC(C)CCN(CCC(C)C)C(=O)c1ccn2nc(-c3ccc(-c4noc(-c5ccncc5)n4)cc3)c(CCCN3CCCCC3)c2c1` [Example 139] is under 0.5 µM; for `COc1ccc(-c2nn3ccc(C(=O)N(CCC(C)C)CCC(C)C)cc3c2CCCN2CCCCC2)cn1` [Example 164, N,N-diisopentyl-2-(6-methoxypyridin-3-yl)-3-(3-(piperidin-1-yl)propyl)pyrazolo[1,5-a]pyridine-5-carboxamide] it is under 0.5 µM; for `COc1ccc(-c2nn3ccc(C(=O)N(CCC(C)C)CCC(C)C)cc3c2CCCN2[C@H](C)CCC[C@@H]2C)cc1` [Example 160] it is 1 to 5 µM.
The figure for `COc1ccc(-c2nn3ccc(C(=O)N(CCC(C)C)CCC(C)C)cc3c2/C=C/CN2CCCCCC2)cc1` [Example 106] is 1 to 5 µM; for `CC(C)CCN(CCC(C)C)C(=O)c1ccn2nc(-c3ccc(-c4noc(=O)[nH]4)cc3)c(CCCN3CCCCC3)c2c1` [Example 103] it is 0.5 to 1 µM.
`CC(C)CCN(CCC(C)C)C(=O)c1ccn2nc(-c3ccc(-c4noc(Cc5ccc(F)cc5)n4)cc3)c(CCCN3CCCCC3)c2c1` [Example 140] gave a half-inhibitory concentration (IC50) of 5 to 15 µM.
As for `CC(C)CCN(CCC(C)C)C(=O)c1ccn2nc(-c3ccc(C(C)(C)C)cc3)c(CCCN3CCCC3)c2c1` [Example 8], the IC50 fell in the range of 1 to 5 µM.
The figure for `CC(C)CCN(CCC(C)C)C(=O)c1ccn2nc(-c3ccccc3Br)c(CCCN3CCCCC3)c2c1` [Example 38] is 1 to 5 µM.
Consider `CC(C)CCN(CCC(C)C)C(=O)c1ccn2nc(-c3ccc(/C(N)=N/O)cc3)c(CCCN3CCCCC3)c2c1` [Example 102], for which the half-inhibitory concentration (IC50) is under 0.5 µM.
Then `CCCCN(CCCC)C(=O)c1ccn2nc(-c3ccc(F)cc3)c(/C=C/CN3CCCCC3)c2c1` [Example 51], with 1 to 5 µM; and `CCCCCN(CCCCC)C(=O)c1ccn2nc(-c3cc(OC)c(OC)c(OC)c3)c(/C=C/CN3CCCCC3)c2c1` [Example 71], with 1 to 5 µM; and `COc1ccc(Nc2nn3ccc(C(=O)N(CCC(C)C)CCC(C)C)cc3c2C(=O)NCCN2CCCCC2)cc1` [Example 152], with 0.5 to 1 µM.
Then `CCCCN(CCCC)C(=O)c1ccn2nc(-c3cc(OC)c(OC)c(OC)c3)c(/C=C/CN3CCCCC3)c2c1` [Example 69], with 0.5 to 1 µM; and `COc1ccc(-c2nn3ccc(C(=O)N(CCC(C)C)CCC(C)C)cc3c2/C=C/CN2CCCOCC2)cc1` [Example 159], with 0.5 to 1 µM.
Then `CC(C)CCN(CCC(C)C)C(=O)c1ccn2nc(-c3cccc(C(N)=O)c3)c(CCCN3CCCCC3)c2c1` [Example 90], with under 0.5 µM.
For `CCCCCN(CCCCC)C(=O)c1ccn2nc(-c3ccccc3)c(CCCN3CCCCC3)c2c1` [Example 56], the 50% inhibitory concentration (IC50) lay in the range of 0.5 to 1 µM.
In turn, `CCCCCN(CCCCC)C(=O)c1ccn2nc(-c3ccc(OC)cc3)c(CCCN3CCCCC3)c2c1` [Example 21] had a concentration for half-maximal inhibition (IC50) of 1 to 5 µM.
